Experimental data from patent US8987250B2 (Gilead Sciences, Inc., priority 2012, dated 2015).

What follows are molecules tested on HIV-IIIb (assay: Test A: Antiviral Assay in MT4 Cells). Conditions: Human immunodeficiency virus 1, IIIB, MT4, 120 h, Table 1; MT-4 cells infected with HIV-IIIb, 5 days of incubation, CellTiter-Glo; read-out: EC50.
Assay type: cell-based
Experimental: The antiviral properties of a compound of the invention may be determined using Test A described below.
Test A: Antiviral Assay in MT4 Cells
For the antiviral assay utilizing MT-4 cells, 0.4 μL of […] test concentration of 3-fold serially diluted compound in DMSO was added to 40 μL of cell growth medium (RPMI 1640, 10% FBS, 1% penicilline/Streptomycine, 1% L-Glutamine, 1% HEPES) in each well of 384-well assay plates (10 concentrations) in quadruplicate.
One mL aliquots of 2×10e6 MT-4 cells were pre-infected for 1 and 3 hours respectively, @ 37° C. with 25 uL (MT4) or of either cell growth medium (mock-infected) or a fresh 1:250 dilution of an HIV-IIIb concentrated ABI stock (0.004m.o.i. for MT4 cells). Infected and uninfected cells were diluted in cell growth medium and 35 uL of 2000 (for MT4) cells was added to each well of the assay plates.
Assay plates were then incubated in a 37° C. incubator. After 5 days of incubation, […] of 2× concentrated CellTiter-Glo™ Reagent (catalog #G7573, Promega Biosciences, Inc., Madison, Wis.) was added to each well of the assay plate. Cell lysis was carried out by incubating at room temperature for 2-3 min and then chemiluminescence was read using the Envision reader (PerkinElmer). […]

**Q.** With `Cc1cc2nc(-n3cccc(-c4ccc5c(cnn5C)c4)c3=O)sc2c(-c2ccc(Cl)cc2)c1[C@H](OC(C)(C)C)C(=O)O` [Compound 117, (S)-2-tert-butoxy-2-(7-(4-chlorophenyl)-5-methyl-2-(3-(1-methyl-1H-indazol-5-yl)-2-oxopyridin-1(2H)-yl)benzo[d]thiazol-6-yl)acetic acid] as the molecule, how does the EC50 read?
**A.** 14 nM

**Q.** How did the EC50 turn out when `Cc1cc2nc(-n3cc(-c4ccc5c(cnn5C)c4)ccc3=O)sc2c(-c2ccc(Cl)cc2)c1[C@H](OC(C)(C)C)C(=O)O` [Compound 118, (S)-2-tert-butoxy-2-(7-(4-chlorophenyl)-5-methyl-2-(5-(1-methyl-1H-indazol-5-yl)-2-oxopyridin-1(2H)-yl)benzo[d]thiazol-6-yl)acetic acid] was run?
**A.** 101 nM

**Q.** `Cc1cc2nc(-c3cccc(-c4ccc5c(cnn5C)c4)c3)sc2c(-c2ccc3c(c2)OC(C)O3)c1[C@H](OC(C)(C)C)C(=O)O` (stereo partly drawn) [Compound 119, (2S)-2-tert-butoxy-2-(5-methyl-2-(3-(1-methyl-1H-indazol-5-yl)phenyl)-7-(2-methylbenzo[d][1,3]dioxol-5-yl)benzo[d]thiazol-6-yl)acetic acid] was tested. Which EC50 did it give?
**A.** 237 nM

**Q.** `Cc1cc2nc(-c3cccc(-c4cnn(C)c4C)c3)sc2c(-c2ccc(Cl)cc2)c1[C@H](OC(C)(C)C)C(=O)O` [Compound 120, (S)-2-tert-butoxy-2-(7-(4-chlorophenyl)-2-(3-(1,5-dimethyl-1H-pyrazol-4-yl)phenyl)-5-methylbenzo[d]thiazol-6-yl)acetic acid] was tested. Which EC50 did it give?
**A.** 23 nM

**Q.** For `Cc1cc2nc(-c3cnc4c(c3)c(C)cn4C)sc2c(-c2ccc(Cl)cc2)c1[C@H](OC(C)(C)C)C(=O)O` [Compound 121, (S)-2-tert-butoxy-2-(7-(4-chlorophenyl)-2-(1,3-dimethyl-1H-pyrrolo[2,3-b]pyridin-5-yl)-5-methylbenzo[d]thiazol-6-yl)acetic acid], which EC50 is on record?
**A.** 27 nM

**Q.** For `Cc1cc2nc(-c3ccnc(-c4cccc(-c5nnn[nH]5)c4)c3)sc2c(-c2ccc(Cl)cc2)c1[C@H](OC(C)(C)C)C(=O)O` [Compound 122, (S)-2-(2-(2-(3-(1H-tetrazol-5-yl)phenyl)pyridin-4-yl)-7-(4-chlorophenyl)-5-methylbenzo[d]thiazol-6-yl)-2-tert-butoxyacetic acid], which EC50 is on record?
**A.** 5520 nM

**Q.** `Cc1cc2nc(N3CCCN(c4ccc5c(cnn5C)c4)C3=O)sc2c(-c2ccc(Cl)cc2)c1[C@H](OC(C)(C)C)C(=O)O` [Compound 123, (S)-2-tert-butoxy-2-(7-(4-chlorophenyl)-5-methyl-2-(3-(1-methyl-1H-indazol-5-yl)-2-oxotetrahydropyrimidin-1(2H)-yl)benzo[d]thiazol-6-yl)acetic acid] was tested. Which EC50 did it give?
**A.** 18 nM

**Q.** `Cc1cc2nc(N3CCN(c4ccc5c(cnn5C)c4)C3=O)sc2c(-c2ccc(Cl)cc2)c1[C@H](OC(C)(C)C)C(=O)O` [Compound 124, (S)-2-tert-butoxy-2-(7-(4-chlorophenyl)-5-methyl-2-(3-(1-methyl-1H-indazol-5-yl)-2-oxoimidazolidin-1-yl)benzo[d]thiazol-6-yl)acetic acid] was tested. Which EC50 did it give?
**A.** 21 nM

**Q.** `Cc1cc2nc(N3CC(c4ccc5c(cnn5C)c4)CC3=O)sc2c(-c2ccc(Cl)cc2)c1[C@H](OC(C)(C)C)C(=O)O` (stereo partly drawn) [Compound 125, (2S)-2-tert-butoxy-2-(7-(4-chlorophenyl)-5-methyl-2-(4-(1-methyl-1H-indazol-5-yl)-2-oxopyrrolidin-1-yl)benzo[d]thiazol-6-yl)acetic acid] was tested. Which EC50 did it give?
**A.** 205 nM

**Q.** For `Cc1cc2nc(N3CCC(c4ccccc4)C3)sc2c(-c2ccc(Cl)cc2)c1[C@H](OC(C)(C)C)C(=O)O` (stereo partly shown) [Compound 126], which EC50 is on record?
**A.** 722 nM

**Q.** For `Cc1cc2nc(-c3ccnc(-c4cnc5cnn(C)c5c4)c3)sc2c(-c2ccc(Cl)cc2)c1[C@H](OC(C)(C)C)C(=O)O` [Compound 129], which EC50 is on record?
**A.** 48 nM

**Q.** For `Cc1cc2nc(-c3cc(-c4ccc5c(cnn5C)c4)ncn3)sc2c(-c2ccc(Cl)cc2)c1[C@H](OC(C)(C)C)C(=O)O` [Compound 130], which EC50 is on record?
**A.** 100 nM

**Q.** How did the EC50 turn out when `Cc1cc2nc(-c3cncc(-c4ccc5c(cnn5C)c4)n3)sc2c(-c2ccc(Cl)cc2)c1[C@H](OC(C)(C)C)C(=O)O` [Compound 131] was run?
**A.** 8 nM

**Q.** For `Cc1cc2nc(-c3cnc4cn(C)nc4c3)sc2c(-c2ccc(Cl)cc2)c1[C@H](OC(C)(C)C)C(=O)O` [Compound 132], which EC50 is on record?
**A.** 12 nM

**Q.** Which EC50 does the source give for `Cc1cc2nc(-c3ccc4c(c3)c(N)nn4C)sc2c(-c2ccc(Cl)cc2)c1[C@H](OC(C)(C)C)C(=O)O` [Compound 133] here?
**A.** 18 nM

**Q.** With `Cc1cc2nc(-c3ccnc(-c4cnc(O)nc4)c3)sc2c(-c2ccc(Cl)cc2)c1[C@H](OC(C)(C)C)C(=O)O` [Compound 134] as the molecule, how does the EC50 read?
**A.** 3230 nM

**Q.** How did the EC50 turn out when `Cc1cc2nc(-c3ccnc(-c4cnc(N5CCOCC5)nc4)c3)sc2c(-c2ccc(Cl)cc2)c1[C@H](OC(C)(C)C)C(=O)O` [Compound 135] was run?
**A.** 17 nM

**Q.** `Cc1cc2nc(-c3ccnc(-c4cnc(N5CCN(C)CC5)nc4)c3)sc2c(-c2ccc(Cl)cc2)c1[C@H](OC(C)(C)C)C(=O)O` [Compound 136] was tested. Which EC50 did it give?
**A.** 12 nM

**Q.** For `Cc1cc2nc(-c3cccc(-c4cnc5cnn(C)c5c4)c3)sc2c(-c2ccc(Cl)cc2)c1[C@H](OC(C)(C)C)C(=O)O` [Compound 137], which EC50 is on record?
**A.** 21 nM

**Q.** `Cc1cc2nc(-c3ccnc(-c4cnc(C5CCC5)nc4)c3)sc2c(-c2ccc(Cl)cc2)c1[C@H](OC(C)(C)C)C(=O)O` [Compound 138] was tested. Which EC50 did it give?
**A.** 65 nM

**Q.** For `Cc1cc2nc(-c3ccnc(-c4ccc5c(c4)c(C4CC4)nn5C)c3)sc2c(-c2ccc(Cl)cc2)c1[C@H](OC(C)(C)C)C(=O)O` [Compound 139], which EC50 is on record?
**A.** 61 nM

**Q.** Which EC50 does the source give for `Cc1cc2nc(-c3ccnc(-c4ccc(N5CCN(C)CC5)nc4)c3)sc2c(-c2ccc(Cl)cc2)c1[C@H](OC(C)(C)C)C(=O)O` [Compound 140] here?
**A.** 5 nM

**Q.** How did the EC50 turn out when `Cc1cc2nc(-c3cccc(-c4cnc(N(C)C)nc4)c3)sc2c(-c2ccc(Cl)cc2)c1[C@H](OC(C)(C)C)C(=O)O` [Compound 142] was run?
**A.** 48 nM

**Q.** How did the EC50 turn out when `COc1ncc(-c2cccc(-c3nc4cc(C)c([C@H](OC(C)(C)C)C(=O)O)c(-c5ccc(Cl)cc5)c4s3)c2)cn1` [Compound 143] was run?
**A.** 24 nM

**Q.** Which EC50 does the source give for `Cc1cc2nc(-c3cccc(-c4cnc(O)nc4)c3)sc2c(-c2ccc(Cl)cc2)c1[C@H](OC(C)(C)C)C(=O)O` [Compound 144] here?
**A.** 2610 nM

**Q.** For `Cc1cc2nc(-c3cccc(-c4cn(C)nc4C)c3)sc2c(-c2ccc(Cl)cc2)c1[C@H](OC(C)(C)C)C(=O)O` [Compound 145], which EC50 is on record?
**A.** 34 nM

**Q.** For `Cc1cc2nc(-c3cccc(-c4cnn(C5CCCC5)c4)c3)sc2c(-c2ccc(Cl)cc2)c1[C@H](OC(C)(C)C)C(=O)O` [Compound 146], which EC50 is on record?
**A.** 92 nM

**Q.** `Cc1cc2nc(-c3cccc(-c4cnn(CC(C)C)c4)c3)sc2c(-c2ccc(Cl)cc2)c1[C@H](OC(C)(C)C)C(=O)O` [Compound 147] was tested. Which EC50 did it give?
**A.** 59 nM

**Q.** `Cc1cc2nc(-c3ccnc(-c4cncc(C(=O)O)c4)c3)sc2c(-c2ccc(Cl)cc2)c1[C@H](OC(C)(C)C)C(=O)O` [Compound 148] was tested. Which EC50 did it give?
**A.** 2700 nM

**Q.** Which EC50 does the source give for `Cc1cc2nc(-c3ccnc(-c4cncc(C(N)=O)c4)c3)sc2c(-c2ccc(Cl)cc2)c1[C@H](OC(C)(C)C)C(=O)O` [Compound 149] here?
**A.** 153 nM

**Q.** With `Cc1cc2nc(-c3cccc(-c4cnn(Cc5ccccc5)c4)c3)sc2c(-c2ccc(Cl)cc2)c1[C@H](OC(C)(C)C)C(=O)O` [Compound 150] as the molecule, how does the EC50 read?
**A.** 91 nM

**Q.** `Cc1cc2nc(-c3cccc(-c4cnn(C(C)C)c4)c3)sc2c(-c2ccc(Cl)cc2)c1[C@H](OC(C)(C)C)C(=O)O` [Compound 151] was tested. Which EC50 did it give?
**A.** 32 nM

**Q.** `Cc1cc2nc(-c3cccc(-c4ccc(N5CCN(C)CC5)nc4)c3)sc2c(-c2ccc(Cl)cc2)c1[C@H](OC(C)(C)C)C(=O)O` [Compound 153] was tested. Which EC50 did it give?
**A.** 15 nM

**Q.** For `Cc1cc2nc(-c3ccnc(-c4cnn(C)c4)c3)sc2c(-c2ccc(Cl)cc2)c1[C@H](OC(C)(C)C)C(=O)O` [Compound 154], which EC50 is on record?
**A.** 16 nM

**Q.** `Cc1cc2nc(-c3ccnc(-c4cccc(C(N)=O)c4)c3)sc2c(-c2ccc(Cl)cc2)c1[C@H](OC(C)(C)C)C(=O)O` [Compound 155] was tested. Which EC50 did it give?
**A.** 66 nM

**Q.** With `Cc1cc2nc(-c3ccnc(-c4cccc(C#N)c4)c3)sc2c(-c2ccc(Cl)cc2)c1[C@H](OC(C)(C)C)C(=O)O` [Compound 156] as the molecule, how does the EC50 read?
**A.** 26 nM

**Q.** For `Cc1cc2nc(-c3cncc(-c4ccc5c(c4)ncn5C)c3)sc2c(-c2ccc(Cl)cc2)c1[C@H](OC(C)(C)C)C(=O)O` [Compound 157], which EC50 is on record?
**A.** 29 nM

**Q.** `Cc1cc2nc(-c3cccc(-c4ccnn4C)c3)sc2c(-c2ccc(Cl)cc2)c1[C@H](OC(C)(C)C)C(=O)O` [Compound 159] was tested. Which EC50 did it give?
**A.** 46 nM

**Q.** For `COc1ncccc1-c1cccc(-c2nc3cc(C)c([C@H](OC(C)(C)C)C(=O)O)c(-c4ccc(Cl)cc4)c3s2)c1` [Compound 160], which EC50 is on record?
**A.** 136 nM

**Q.** `COc1ccncc1-c1cccc(-c2nc3cc(C)c([C@H](OC(C)(C)C)C(=O)O)c(-c4ccc(Cl)cc4)c3s2)c1` [Compound 161] was tested. Which EC50 did it give?
**A.** 116 nM

**Q.** For `Cc1cc2nc(-c3cccc(-c4ccccc4)c3F)sc2c(-c2ccc(Cl)cc2)c1[C@H](OC(C)(C)C)C(=O)O` [Compound 162], which EC50 is on record?
**A.** 350 nM

**Q.** With `Cc1cc2nc(-c3cccc(-c4ccc5c(cnn5C)c4)c3)sc2c(-c2ccc3c(c2)C(=O)CCO3)c1[C@H](OC(C)(C)C)C(=O)O` [Compound 169] as the molecule, how does the EC50 read?
**A.** 33 nM

**Q.** For `Cc1cc2nc(-c3cccc(-c4ccc5c(cnn5C)c4)c3)sc2c(-c2ccc3c(c2)CCCO3)c1[C@H](OC(C)(C)C)C(=O)O` [Compound 170], which EC50 is on record?
**A.** 35 nM
